According to US11479587B2, “Cationic intrinsically disordered antimicrobial peptides” (priority 2016, dated 2022):
Marks after values point to notes of the source that are not given here. No end group written: not given here. *: point of attachment. Palmitoyl = CCCCCCCCCCCCCCCC(=O)*; Myristoyl = CCCCCCCCCCCCCC(=O)*

System: P. aeruginosa ATCC 10145
Assay: CFU-assay, P. aeruginosa-cidal activity
Type: cell-based, Pseudomonas aeruginosa
Settings: pH 5.0, 0.25% glucose

Molecule	MBC90 [µg/mL]	MBC100 [µg/mL]
RGSGSGHQGHSSSHGLGSGHRG (Peptide with reverse sequence to 18 amino acid peptide derived from human hornerin (revHR 1-18))	<0.019	0.075
SLSSGHGSGHGHQRGGHRSGSG (Peptide with scrambled amino acid sequence of a 18 amino acid peptide derived from human hornerin (scrHR 1-18))	<0.019	0.075

Same assay, conditions: pH 5.5, 0.25% glucose

Molecule	MBC100	MBC90	MBC99
HSQRGSGSRQSPSYGRH (Modified peptide derived from human hornerin (HR 2-16 HRNR1128-1144))	37.5 (only at μg/ml		
HSSSHGQHGSGSGR (Peptide derived from human hornerin (HR 1-38 HRNR 2664-2677)) [HR 1-38 HRNR2664-2677]	>300 µg/mL		
HTHSGHAHGQAGSQHGESGSSVHER (Peptide derived from human filaggrin-2 (FLG-2 2044-2068)) [FLG-22044-2068]	0.3 µg/mL	0.038 µg/mL	
HTHSGHTHGQAGSHYPESGSSVHER (Peptide derived from human filaggrin-2 (FLG-2 1969-1993)) [FLG-21969-1993]	0.3 µg/mL	0.038 µg/mL	
HTHSGHTHGQARSQHGESESIVHER (Peptide derived from human filaggrin-2 (FLG-2 1742-1766)) [FLG-21742-1766]	0.15 µg/mL	0.038 µg/mL	
HTHSGHTHGQSGSQHGESESIIHDR (Peptide derived from human filaggrin-2 (FLG-2 1515-1539)) [FLG-21515-1539]	0.59 µg/mL	0.075 µg/mL	
HTHSGHTHSQARSQHGESESTVHKR (Peptide derived from human filaggrin-2 (FLG-2 1894-1918)) [FLG-21894-1918]	0.3 µg/mL	0.038 µg/mL	
LGHSSSHGQHGSGSGRSSSRGPYESRLGH [HR 1-36 HRNR2663-2690]	2.35 µg/mL	0.15 µg/mL	
QGSHHEQSVNRSGHSGSHHSHTTSQGR (Peptide derived from human filaggrin (FLG 528-554)) [FLG528-554]	0.59 µg/mL	0.15 µg/mL	
RGR (Synthetic cationic intrinsically disordered antimicrobial peptide (GR3))	>930 µM	150 µM	
RGRGR (Synthetic cationic intrinsically disordered antimicrobial peptide (GR5))	>500 µM	6.1 µM	
RGRGRGR (Synthetic cationic intrinsically disordered antimicrobial peptide (GR7))	2.8 µM	0.31 µM	
RGRGRGRGR (Synthetic cationic intrinsically disordered antimicrobial peptide (GR9))	>400, μM	0.22 µM	MBC99: 10.2 μM
RGSRSGQSSRGERR (Modified peptide derived from human hornerin (HR 1-11s 2H2R-14))	4.7 µg/mL	0.15 µg/mL	
RGSRSGQSSRGERRGSSSGSSSR (Modified peptide derived from human hornerin (HR 1-11 3H3R))	9.375* μg/ml	0.3 µg/mL	
RHGSGLGHSSSH (Peptide derived from human hornerin (HR 1-27 HRNR 2657-2668)) [HR 1-27 HRNR2657-2668]		75-100* μg/ml	
RHGSGLGHSSSHGQH (Peptide derived from human hornerin (HR 1-26 HRNR 2657-2671)) [HR 1-26 HRNR2657-2671]	4.7-75* μg/ml		
TAGRRGSGH (Peptide derived from human filaggrin-2 (FLG-2 2097-2105)) [FLG-22097-2105]	>300 µg/mL	>300 µg/mL	
THEHEQSHQRRDRQTHEDKQNRQR (Peptide derived from human repetin (RPTN 747-770)) [RPTN747-770]	150 µg/mL	0.3 µg/mL	
SQHKSSSGQSSGYSQHGSGSGHSSGYGQHGSRSGQSSRGDRHRSSSGSSSSYGQHGSGSRQSL (Peptide derived from human hornerin (HRNR 232-294)) SQHKSSSGQSSGYSQHGSGSGHSSGYGQHGSRSGQSSRGDRHRSSSGSSSSYGQHGSGSRQSL	2.35 µg/mL	0.30 µg/mL	
LGHGQHGSGSGQSPSPSRGRHGSGSGQSSSYGPYRSGSGWSSSRGPYESGSGHSSGLGHRER (Peptide derived from human hornerin (HRNR 995-1056)) LGHGQHGSGSGQSPSPSRGRHGSGSGQSSSYGPYRSGSGWSSSRGPYESGSGHSSGLGHRER	2.35 µg/mL	0.3 µg/mL	
GHGRQGSGSRQSPSHVRHGSGSGHSSSHGQHGSGSSYSYSRGHYESGSGQTSGFGQHESGSGQSSGY (Peptide derived from human hornerin (HRNR 295-361)) GHGRQGSGSRQSPSHVRHGSGSGHSSSHGQHGSGSSYSYSRGHYESGSGQTSGFGQHESGSGQSSGY	0.59 µg/mL	0.15 µg/mL	
GHKSSSGQSSGYTQHGSGSGHSSSYEQHGSRSGQSSRSEQHGSSSGSSSSYGQHGSGSRQSL (Peptide derived from human hornerin (HRNR 933-994)) GHKSSSGQSSGYTQHGSGSGHSSSYEQHGSRSGQSSRSEQHGSSSGSSSSYGQHGSGSRQSL	2.35 µg/mL	0.3 µg/mL	

Same assay, conditions: pH 5.5, 1% TSB

Molecule	MBC90 [µg/mL]	MBC100 [µg/mL]
HGSRSGQSSGGERHGSSSGSSSH (Modified peptide derived from human hornerin (HR 1-11 R2-G R2615G))	75	>300
HGSRSGQSSGGGRHGSSSGSSSH (Modified peptide derived from human hornerin (HR 1-11 E-G E2617G))	0.59	>300
HGSRSGQSSRGEGHGSSSGSSSH (Modified peptide derived from human hornerin (HR 1-11 R3-G R2618G))	75	>300
HGSRSGQSSRGERGGSSSGSSSH (Modified peptide derived from human hornerin (HR 1-11 H2-G H2619G))	75	>300
HGSRSGQSSRGERHGSSSGSSSG (Modified peptide derived from human hornerin (HR 1-11 H3-G H2628G))	18.75	>300
HGSSSGSSSHYGQHGSGSR (Peptide derived from human hornerin (HR 1-4 HRNR 2619-2637)) [HR 1-4 HRNR2619-2637]	150	>300
HR 2-8: CIDAMP tested alone and in 1:1 mixture with HR 1-8 HRNR2658-2677 (GSGSRQSPSYGR; Peptide derived from human hornerin (HR 2-8))	18.75	>300
RQSPSYGRHGSGSGR (Peptide derived from human hornerin (HR 2-14 HRNR 1136-1150)) [HR 2-14 HRNR1136-1150]	300	>300
SRQSPSYGRHGSGR (Modified peptide derived from human hornerin (HR 2-15 HRNR 1136-1150 S1148R)) [HR 2-15 HRNR1136-1150 S1148R]	75	>300

System: S. aureus ATCC 6538
Assay: CFU-assay, S. aureus-cidal activity
Type: cell-based, Staphylococcus aureus
Settings: pH 5.5, 0.25% glucose
Protocol: Thus, within the present invention, the antimicrobial activity is generally measured in nutrient deficient 10 mM sodium phosphate buffer pH 5.5, containing 0.25% glucose, using the CFU-assay according to Steinberg and Lehrer, 1997 (supra), unless otherwise indicated. The CFU-assay allows determination of the minimal bactericidal concentration (MBC, e.g., MBC90 and MBC100; i.e. the concentration of compound required to achieve a specified reduction in bacterial cell number (microbial death or killing)).
Various peptides corresponding to repeat domains of hornerin (HR 1-11: HRNR 2606-2628; HR 1-17: HRNR 2656-2684 and HR 1-18: HRNR 2656-2677) were tested for P. aeruginosa ATCC 10145-cidal activity in 10 mM Na-phosphate buffer pH 5.5, containing 0.25% glucose by counting the numbers of colonies of surviving bacteria at serial, twofold dilutions from 300 μg/ml down to 19 ng/ml of each peptide (CFU-assay; Steinberg and Lehrer, 1997, Methods Mol. Biol. 78, 169-186).
Staphylococcus aureus is a major skin pathogen, which causes skin infections, in particular in atopic dermatitis. The sensitivity of S. aureus ATCC 6538 towards several CIDAMPs was assessed using the CFU-assay as above (see Example 1). HR 1-18, which lacks S. aureus.-bactericidal activity, is converted in a S. aureus-cidal peptide, when all His are replaced by Arg (HR 1-18 4H-4R; see Table 13 and FIG. 9). […] HR 1-18 4H-4R is rich in Ser and Arg and contains a single Leu residue. When this single Leu was replaced by Gly in S. aureus-cidal HR 1-18 4H-4R (forming HR 1-18 4H-4R/L-G), S. aureus-cidal activity was abolished at both pH 7.0 and pH 5.5 (see Table 13 and FIG. 9).

Molecule	MBC90 [µg/mL]	MBC100 [µg/mL]
GQHGSSSGHSSTHGQHGSASGQSSSC-Pal* (GQHGSSSGHSSTHGQHGSASGQSSSC(Pal)-NH2) [S-Pal-HRNR2004-2029]	0.59	
GQHGSSSGHSSTHGQHGSTSGQSSSC-Pal* (GQHGSSSGHSSTHGQHGSTSGQSSSC(Pal)-NH2) [S-Pal-HRNR598-623]	2.35	>150
GRHGSGSGQSSGFGHHESSSWQSSGC-Pal* (GRHGSGSGQSSGFGHHESSSWQSSGC(Palmitoyl)-NH2) [S-Pal-HRNR1389-1414]	1.18	18.8
Pal-CGQHGATSGQSSSHGQHGSGSSQSSR (C(Palmitoyl)GQHGATSGQSSSHGQHGSGSSQSSR) [S-Pal-HRNR623-648]	2.35	>150

Same assay, conditions: pH 7.3, 1% TSB

Molecule	MBC90 [µg/mL]	MBC100 [µg/mL]
Myr-GRRGSGLGRSSSRGQRGSGSGR (Myristoyl-GRRGSGLGRSSSRGQRGSGSGR) [Myr-HR 1-18 HR]	18.75	75
